Source: patent US9828350B2, “5,6-dihydro-2H-[1,4]oxazin-3-yl-amine derivatives useful as inhibitors of beta-secretase (BACE)” (Janssen Pharmaceutica NV, priority 2010, dated 2017)
Where a name gives a salt, the structure may show the parent alone.

What was measured:
Abeta 1-42 = test: Cellular αLisa assay in SKNBE2 cells, Abeta 1-42; assay type: cell-based, human; conditions: incubated for 18 hours; for IC50: Homo sapiens, SKNBE2, 18 h, read-out: Cellular αLisa assay in SKNBE2 cells Abeta 42 pIC50 (converted)
Experimental: (§1) Cellular αLisa Assay in SKNBE2 Cells
(§2) In two αLisa assays the levels of Abeta total and Abeta 1-42 produced and secreted into the medium of human neuroblastoma SKNBE2 cells are quantified. The assay is based on the human neuroblastoma SKNBE2 expressing the wild type Amyloid Precursor Protein (hAPP695). The compounds are diluted and added to these cells, incubated for 18 hours and then measurements of Abeta 1-42 and Abeta total are taken. Abeta total and Abeta 1-42 are measured by sandwich αLisa. αLisa is a sandwich assay using biotinylated antibody AbN/25 attached to streptavidin coated beads and antibody Ab4G8 or cAb42/26 conjugated acceptor beads for the detection of Abeta total and Abeta 1-42 respectively. In the presence of Abeta total or Abeta 1-42, the beads come into close proximity. The excitation of the donor beads provokes the release of singlet oxygen molecules that trigger a cascade of energy transfer in the acceptor beads, resulting in light emission. Light emission is measured after 1 hour incubation (excitation at […] and emission at 615 nm).

Abeta total = test: Cellular αLisa assay in SKNBE2 cells, Abeta total; assay type: cell-based, human; conditions: incubated for 18 hours; for IC50: Homo sapiens, SKNBE2, 18 h, read-out: Cellular αLisa assay in SKNBE2 cells Abetatotal pIC50 (converted)
Experimental: as §1, §2

[1] = target: recombinant BACE1 protein (Homo sapiens, UniProt P56817); test: Biochemical FRET based assay; conditions: recombinant BACE1 1 μg/ml, 120 minutes at room temperature, pH 5.0; for IC50: read-out: Biochemical FRET based assay pIC50 (converted)
Text: Biochemical FRET Based Assay
This assay is a Fluorescence Resonance Energy Transfer Assay (FRET) based assay. The substrate for this assay is an APP derived 13 amino acids peptide that contains the ‘Swedish’ Lys-Met/Asn-Leu mutation of the amyloid precursor protein (APP) beta-secretase cleavage site. This substrate also contains two fluorophores: (7-methoxycoumarin-4-yl) acetic acid (Mca) is a fluorescent donor with excitation wavelength at 320 nm and emission at 405 nm and 2,4-Dinitrophenyl (Dnp) is a proprietary quencher acceptor. […] Upon cleavage by BACE1, the fluorophore Mca is separated from the quenching group Dnp, restoring the full fluorescence yield of the donor. The increase in fluorescence is linearly related to the rate of proteolysis.
Briefly in a 384-well format recombinant BACE1 protein in a final concentration of 1 μg/ml is incubated for 120 minutes at room temperature with […] substrate in incubation buffer (40 mM Citrate buffer pH 5.0, 0.04% PEG, 4% DMSO) in the absence or presence of compound. Next the amount of proteolysis is directly measured by fluorescence measurement at T=0 and T=120 (excitation at 320 nm and emission at 405 nm). Results are expressed in RFU (Relative Fluorescence Units), as difference between T120 and TO.

Chain of recombinant BACE1 protein (P56817 46-501): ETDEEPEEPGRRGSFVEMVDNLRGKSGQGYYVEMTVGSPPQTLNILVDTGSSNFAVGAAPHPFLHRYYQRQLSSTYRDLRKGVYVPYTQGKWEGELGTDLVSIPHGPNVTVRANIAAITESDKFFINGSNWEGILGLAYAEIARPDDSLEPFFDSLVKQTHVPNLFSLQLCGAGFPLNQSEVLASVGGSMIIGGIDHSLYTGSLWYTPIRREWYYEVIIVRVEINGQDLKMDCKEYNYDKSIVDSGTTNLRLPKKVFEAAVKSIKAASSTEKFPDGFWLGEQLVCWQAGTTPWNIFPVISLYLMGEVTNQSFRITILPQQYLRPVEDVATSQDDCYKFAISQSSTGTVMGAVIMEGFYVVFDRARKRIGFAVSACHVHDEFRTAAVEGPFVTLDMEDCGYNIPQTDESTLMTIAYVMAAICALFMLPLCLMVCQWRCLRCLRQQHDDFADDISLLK

C[C@@]1(c2cc(NC(=O)c3ccc(Cl)cn3)ccc2F)N=C(N)CO[C@]1(F)C(F)(F)F (single isomer, unassigned) [Compound 109, (2R*,3S*)—N-{3-[5-amino-2-fluoro-3-methyl-2-(trifluoromethyl)-3,6-dihydro-2H-1,4-oxazin-3-yl]-4-fluorophenyl}-5-chloropyridine-2-carboxamide]
IC50 (Abeta 1-42): 708 nM
IC50 (Abeta total): 832 nM

COc1cnc(C(=O)Nc2cccc([C@@]3(C4CC4)N=C(N)CO[C@@]3(F)C(F)(F)F)c2)cn1 [Compound 203]
IC50 [1]: 20.4 nM
IC50 (Abeta 1-42): 37.2 nM
IC50 (Abeta total): 37.2 nM

CC1(c2cc(NC(=O)c3ccc(C#N)cn3)ccc2F)N=C(N)COC1F (stereo not drawn) [Compound 76]
IC50 (Abeta 1-42): 11 nM
IC50 (Abeta total): 11.2 nM

C[C@]1(c2ccnc(-c3cc(Cl)cc(Cl)c3)c2)N=C(N)CO[C@@H]1F (single isomer, unassigned) [Compound 277, (5R*,6R*)-5-[2-(3,5-dichlorophenyl)pyridin-4-yl]-6-fluoro-5-methyl-5,6-dihydro-2H-1,4-oxazin-3-amine]
IC50 [1]: 219 nM
IC50 (Abeta 1-42): 107 nM
IC50 (Abeta total): 112 nM

CC1(c2cccc(-c3cncnc3)c2)N=C(N)COC1(F)C(F)(F)F (single isomer, unassigned) [Compound 116]
IC50 [1]: > 30200 nM
Cellular αLisa assay in SKNBE2 cells Abeta 42 pIC50 (Abeta 1-42): 5.18
Cellular αLisa assay in SKNBE2 cells Abetatotal pIC50 (Abeta total): 5.06

CC1(c2cc(NC(=O)c3ccc(Cl)cn3)ccc2F)N=C(N)COC1F (single isomer, unassigned) [Compound 135]
Cellular αLisa assay in SKNBE2 cells Abeta 42 pIC50 (Abeta 1-42): 5.04
Cellular αLisa assay in SKNBE2 cells Abetatotal pIC50 (Abeta total): 5.06

CC1(c2cccc(NC(=O)c3ccc(Cl)cn3)c2)N=C(N)COC1(F)C(F)(F)F (single isomer, unassigned) [Compound 114]
Cellular αLisa assay in SKNBE2 cells Abeta 42 pIC50 (Abeta 1-42): 5.82
Cellular αLisa assay in SKNBE2 cells Abetatotal pIC50 (Abeta total): 5.5

COc1cccc(-c2cc([C@]3(C)COCC(N)=N3)c(F)cc2F)c1 [Compound 47]
Biochemical FRET based assay pIC50 [1]: 5.95
Cellular αLisa assay in SKNBE2 cells Abeta 42 pIC50 (Abeta 1-42): 6.79
Cellular αLisa assay in SKNBE2 cells Abetatotal pIC50 (Abeta total): 6.83

COc1ccc(C(=O)Nc2ccc(F)c([C@@]3(C4CC4)N=C(N)CO[C@H]3C(F)(F)F)c2)nc1 [Compound 231]
IC50 [1]: 33.9 nM
IC50 (Abeta 1-42): 12.3 nM
IC50 (Abeta total): 11.7 nM

N#Cc1cncc(-c2cccc([C@@]3(C4CC4)N=C(N)CO[C@H]3C(F)(F)F)c2)c1 [Compound 253, (5R,6R)-5-{3-[5-amino-3-cyclopropyl-2-(trifluoromethyl)-3,6-dihydro-2H-1,4-oxazin-3-yl]phenyl}pyridine-3-carbonitrile]
IC50 [1]: 155 nM
IC50 (Abeta 1-42): 49 nM
IC50 (Abeta total): 50.1 nM

CC1(c2cc(-c3cc(Cl)cc(Cl)c3)ccn2)COCC(N)=N1 (racemic) [Compound 121]
Biochemical FRET based assay pIC50 [1]: 5.73
Cellular αLisa assay in SKNBE2 cells Abeta 42 pIC50 (Abeta 1-42): 6.43
Cellular αLisa assay in SKNBE2 cells Abetatotal pIC50 (Abeta total): 6.48

CC1(c2cc(NC(=O)c3ccc(Cl)cn3)ccc2F)N=C(N)COC1C(F)(F)F (stereo not drawn) [Compound 165]
Cellular αLisa assay in SKNBE2 cells Abeta 42 pIC50 (Abeta 1-42): 8.14
Cellular αLisa assay in SKNBE2 cells Abetatotal pIC50 (Abeta total): 8.13

COc1cnc(C(=O)Nc2cccc(C3(C)N=C(N)COC3(F)C(F)(F)F)c2)cn1 (single isomer, unassigned) [Compound 176]
IC50 [1]: 1290 nM
Cellular αLisa assay in SKNBE2 cells Abeta 42 pIC50 (Abeta 1-42): 6.34
Cellular αLisa assay in SKNBE2 cells Abetatotal pIC50 (Abeta total): 6.38

CC1(c2cc(NC(=O)c3ncc(Cl)cc3Cl)ccc2F)COCC(N)=N1 (stereo not drawn) [Compound 21]
Cellular αLisa assay in SKNBE2 cells Abeta 42 pIC50 (Abeta 1-42): 8.27
Cellular αLisa assay in SKNBE2 cells Abetatotal pIC50 (Abeta total): 8.3

C[C@@]1(c2cc(NC(=O)c3ccc(Cl)cn3)ccc2F)COCC(N)=N1 [Compound 44]
Cellular αLisa assay in SKNBE2 cells Abeta 42 pIC50 (Abeta 1-42): 8.39
Cellular αLisa assay in SKNBE2 cells Abetatotal pIC50 (Abeta total): 8.3945

COc1cnc(C(=O)Nc2ccc(F)c(C3(C)N=C(N)COC3F)c2)cn1 (single isomer, unassigned) [Compound 129]
IC50 (Abeta 1-42): 5250 nM
IC50 (Abeta total): 4570 nM

COc1cnc(C(=O)Nc2ccc(F)c(C3(C)COCC(N)=N3)c2)cn1 (racemic) [Compound 57]
Cellular αLisa assay in SKNBE2 cells Abeta 42 pIC50 (Abeta 1-42): 7.79
Cellular αLisa assay in SKNBE2 cells Abetatotal pIC50 (Abeta total): 7.8

CC1(c2cc(NC(=O)c3ccc(Cl)cn3)ccc2F)N=C(N)COC1F (single isomer, unassigned) [Compound 137]
Cellular αLisa assay in SKNBE2 cells Abeta 42 pIC50 (Abeta 1-42): <4.82
Cellular αLisa assay in SKNBE2 cells Abetatotal pIC50 (Abeta total): <4.82

CC1(c2cccc(-c3cncnc3)c2)COCC(N)=N1 (racemic) [Compound 3, rac-5-methyl-5-(3-pyrimidin-5-ylphenyl)-5,6-dihydro-2H-1,4-oxazin-3-amine trifluoroacetate salt]
IC50 (Abeta 1-42): 631 nM
IC50 (Abeta total): 646 nM

COc1cnc(C(=O)Nc2ccc(F)c(C3(C4CC4)N=C(N)COC3F)c2)cn1.Cl (stereo not drawn) [Compound 244]
Cellular αLisa assay in SKNBE2 cells Abetatotal pIC50 (Abeta total): 7.11

COc1ccc(C(=O)Nc2cccc([C@@]3(C)N=C(N)CO[C@]3(F)C(F)(F)F)c2)nc1 [Compound 247]
IC50 (Abeta 1-42): 16.2 nM
IC50 (Abeta total): 14.5 nM

COc1cnc(C(=O)Nc2ccc(F)c(C3(C)N=C(N)COC3F)c2)cn1 (stereo not drawn) [Compound 79]
IC50 (Abeta 1-42): 25.7 nM
IC50 (Abeta total): 25.7 nM

COc1ccc(C(=O)Nc2cccc([C@@]3(C)N=C(N)CO[C@@]3(F)C(F)(F)F)c2)nc1 [Compound 248]
IC50 (Abeta 1-42): 229 nM
IC50 (Abeta total): 209 nM

CC1(c2cc(NC(=O)c3ccc(Cl)cn3)ccc2F)N=C(N)COC1(F)C(F)(F)F.Cl.Cl (single isomer, unassigned) [Compound 159]
Cellular αLisa assay in SKNBE2 cells Abeta 42 pIC50 (Abeta 1-42): 6.15
Cellular αLisa assay in SKNBE2 cells Abetatotal pIC50 (Abeta total): 6.08

CC1(c2cccc(NC(=O)c3ccc(Cl)cn3)c2)N=C(N)COC1(F)C(F)(F)F (single isomer, unassigned) [Compound 115]
Cellular αLisa assay in SKNBE2 cells Abetatotal pIC50 (Abeta total): 6.68

CC1(c2cc(NC(=O)c3ccc(Cl)cn3)ccc2F)N=C(N)COC1C(F)(F)F (racemic) [Compound 107, trans-rac-N-{3-[5-amino-3-methyl-2-(trifluoromethyl)-3,6-dihydro-2H-1,4-oxazin-3-yl]-4-fluorophenyl}-5-chloropyridine-2-carboxamide]
IC50 (Abeta 1-42): 15.5 nM
IC50 (Abeta total): 12.6 nM

CC1(c2cc(NC(=O)c3ccc(Cl)cn3)ccc2F)N=C(N)COC1F (single isomer, unassigned) [Compound 136]
Cellular αLisa assay in SKNBE2 cells Abeta 42 pIC50 (Abeta 1-42): 5.26
Cellular αLisa assay in SKNBE2 cells Abetatotal pIC50 (Abeta total): 5.27

CC1(c2cc(NC(=O)c3ccc(Cl)cn3)ccc2F)COCC(N)=N1 (racemic) [Compound 65]
Cellular αLisa assay in SKNBE2 cells Abeta 42 pIC50 (Abeta 1-42): 8.32
Cellular αLisa assay in SKNBE2 cells Abetatotal pIC50 (Abeta total): 8.3

CC1(c2cc(NC(=O)c3ccc(Cl)cn3)ccc2F)COCC(N)=N1 (racemic) [Compound 17]
Cellular αLisa assay in SKNBE2 cells Abeta 42 pIC50 (Abeta 1-42): 8.32
Cellular αLisa assay in SKNBE2 cells Abetatotal pIC50 (Abeta total): 8.3

CC1(c2cc(NC(=O)c3ccc(Cl)cn3)ccc2F)COCC(N)=N1 (single isomer, unassigned) [Compound 61]
Cellular αLisa assay in SKNBE2 cells Abeta 42 pIC50 (Abeta 1-42): 6.94
Cellular αLisa assay in SKNBE2 cells Abetatotal pIC50 (Abeta total): 6.98

C[C@@]1(c2cc(NC(=O)c3ccc(Cl)cn3)ccc2F)COCC(N)=N1 [Compound 62]
Cellular αLisa assay in SKNBE2 cells Abeta 42 pIC50 (Abeta 1-42): 8.39
Cellular αLisa assay in SKNBE2 cells Abetatotal pIC50 (Abeta total): 8.39

CC1(c2cc(NC(=O)c3ccc(Cl)cn3)ccc2F)N=C(N)COC1C(F)(F)F (stereo not drawn) [Compound 170]
Cellular αLisa assay in SKNBE2 cells Abeta 42 pIC50 (Abeta 1-42): 8
Cellular αLisa assay in SKNBE2 cells Abetatotal pIC50 (Abeta total): 8

CC1(c2cc(NC(=O)c3ccc(Cl)cn3)ccc2F)N=C(N)COC1(F)C(F)(F)F (stereo not drawn) [Compound 186]
Cellular αLisa assay in SKNBE2 cells Abeta 42 pIC50 (Abeta 1-42): 6.75
Cellular αLisa assay in SKNBE2 cells Abetatotal pIC50 (Abeta total): 6.78

C[C@]1(c2cc(NC(=O)c3ccc(Cl)cn3)ccc2F)N=C(N)CO[C@@]1(F)C(F)(F)F (single isomer, unassigned) [Compound 110, (2S*,3R*)—N-{3-[5-amino-2-fluoro-3-methyl-2-(trifluoromethyl)-3,6-dihydro-2H-1,4-oxazin-3-yl]-4-fluorophenyl}-5-chloropyridine-2-carboxamide]
IC50 (Abeta 1-42): 22.9 nM
IC50 (Abeta total): 22.4 nM

NC1=N[C@@](c2cc(-c3cncc(Cl)c3)ccc2F)(C2CC2)[C@H](F)OC1 [Compound 273]
IC50 (Abeta 1-42): 8130 nM
IC50 (Abeta total): 6460 nM

CC1(c2cc(NC(=O)c3ccc(C#N)cn3)ccc2F)N=C(N)COC1F (single isomer, unassigned) [Compound 125]
Cellular αLisa assay in SKNBE2 cells Abeta 42 pIC50 (Abeta 1-42): 6.44
Cellular αLisa assay in SKNBE2 cells Abetatotal pIC50 (Abeta total): 6.42
